Assay results as given in patent publication US6500842B1, “8-hydroxy-7-substituted quinolines as anti-viral agents” (Pharmacia & Upjohn Company, priority 1996, dated 2002).
Values joined by “and” are separate entries in the source; they are usually repeats but may differ in a detail not shown here. Equal entries are not always repeated. Where two headings read alike, the source gives them in different places. Blank lines part the entries; values can stand above or below the molecule they belong to.

Assays:
CMV polymerase = biological target: T1, CMV polymerase (Human cytomegalovirus, UniProt P08546); assay: modified version of the HCMV polymerase assay (100% DMSO dilution, DTT, different enzyme lot); assay type: biochemical
T1 construct: made in house; host or cells: recombinant baculovirus-infected SF-9 cells
Description: (§1) The HCMV polymerase assay is performed using a scintillation proximity assay (SPA) as described in several references, such as N. D. Cook, et al., Pharmaceutical Manufacturing International, pages 49-53 (1992); K. Takeuchi, Laboratory Practice, September issue (1992); U.S. Pat. No. 4,568,649 (1986); which are incorporated by reference herein. Reactions are performed in 96-well plates. The assay is conducted in 100 μl volume with 5.4 mM HEPES (pH 7.5), 11.7 mM KCl, 4.5 mM MgCl2, 0.36 mg/ml BSA, and 90 nM ^3H-dTTP. Assays are run with and without CHAPS, (3-[(3-Cholamidopropyl)-dimethylammonio]-1-propane-sulfonate) at a final concentration of 2 mM. HCMV is diluted in enzyme dilution buffer containing 50% glycerol, 250 mM NaCl, 10 mM HEPES (pH 7.5), 100 pg/ml BSA, and 0.01% sodium azide. The HCMV polymerase, which is expressed in recombinant baculovirus-infected SF-9 cells and purified according to literature procedures, is added at 10% (or 10 μl) of the final reaction volume, i.e., 100 μl. Compounds are diluted in 50% DMSO and 10 μl are added to each well. Control wells contain an equivalent concentration of DMSO. Unless noted otherwise, reactions are initiated via the addition of 6 nM biotinylated poly(dA)-oligo(dT) template/primer to reaction mixtures containing the enzyme, substrate, and compounds of interest. Plates are incubated in a 25° C. of 37° C. H2O bath and terminated via the addition of 40 μl/reaction of 0.5 M EDTA (pH 8) per well. Reactions are terminated within the time-frame during which substrate incorporation is linear and varied depending upon the enzyme and conditions used, i.e., 30 min. for HCMV polymerase. Ten μl of streptavidin-SPA beads (20 mg/ml in PBS/10% glycerol) are added following termination of the reaction. Plates are incubated 10 min. at 37° C., then equilibrated to room temperature, and counted on a Packard Topcount. Linear regressions are performed and IC50's are calculated using computer software. Results of the testing of compounds of the present invention in this assay are shown in Tables 1, 2, 5, 9, 10, 11, 13 (except for the last compound which was tested under modified conditions) and 14 below.
A modified version of the above HCMV polymerase assay is performed as described above, but with the following changes: Compounds are diluted in 100% DMSO until final dilution into assay buffer. In the previous assay, compounds are diluted in 50% DMSO. 4.5 mM dithiotherotol (DTT) is added to the polymerase buffer.

HCMV polymerase = biological target: T2, HCMV polymerase (Human cytomegalovirus, UniProt P08546); assay: HCMV polymerase assay (scintillation proximity assay); assay type: biochemical
T2 construct: made in house; host or cells: recombinant baculovirus-infected SF-9 cells
Description: as §1

[1] = Polymerase CMV, Table 7, read-out: Antiviral Selective Polymerase IC50 Values - IC50
[2] = Table 10, CMV pol Assay, read-out: IC50
[3] = Table 9, read-out: CMV pol Assay- IC50
[4] = Table 11, read-out: CMV pol Assay IC50

T1 sequence (P08546 whole entry): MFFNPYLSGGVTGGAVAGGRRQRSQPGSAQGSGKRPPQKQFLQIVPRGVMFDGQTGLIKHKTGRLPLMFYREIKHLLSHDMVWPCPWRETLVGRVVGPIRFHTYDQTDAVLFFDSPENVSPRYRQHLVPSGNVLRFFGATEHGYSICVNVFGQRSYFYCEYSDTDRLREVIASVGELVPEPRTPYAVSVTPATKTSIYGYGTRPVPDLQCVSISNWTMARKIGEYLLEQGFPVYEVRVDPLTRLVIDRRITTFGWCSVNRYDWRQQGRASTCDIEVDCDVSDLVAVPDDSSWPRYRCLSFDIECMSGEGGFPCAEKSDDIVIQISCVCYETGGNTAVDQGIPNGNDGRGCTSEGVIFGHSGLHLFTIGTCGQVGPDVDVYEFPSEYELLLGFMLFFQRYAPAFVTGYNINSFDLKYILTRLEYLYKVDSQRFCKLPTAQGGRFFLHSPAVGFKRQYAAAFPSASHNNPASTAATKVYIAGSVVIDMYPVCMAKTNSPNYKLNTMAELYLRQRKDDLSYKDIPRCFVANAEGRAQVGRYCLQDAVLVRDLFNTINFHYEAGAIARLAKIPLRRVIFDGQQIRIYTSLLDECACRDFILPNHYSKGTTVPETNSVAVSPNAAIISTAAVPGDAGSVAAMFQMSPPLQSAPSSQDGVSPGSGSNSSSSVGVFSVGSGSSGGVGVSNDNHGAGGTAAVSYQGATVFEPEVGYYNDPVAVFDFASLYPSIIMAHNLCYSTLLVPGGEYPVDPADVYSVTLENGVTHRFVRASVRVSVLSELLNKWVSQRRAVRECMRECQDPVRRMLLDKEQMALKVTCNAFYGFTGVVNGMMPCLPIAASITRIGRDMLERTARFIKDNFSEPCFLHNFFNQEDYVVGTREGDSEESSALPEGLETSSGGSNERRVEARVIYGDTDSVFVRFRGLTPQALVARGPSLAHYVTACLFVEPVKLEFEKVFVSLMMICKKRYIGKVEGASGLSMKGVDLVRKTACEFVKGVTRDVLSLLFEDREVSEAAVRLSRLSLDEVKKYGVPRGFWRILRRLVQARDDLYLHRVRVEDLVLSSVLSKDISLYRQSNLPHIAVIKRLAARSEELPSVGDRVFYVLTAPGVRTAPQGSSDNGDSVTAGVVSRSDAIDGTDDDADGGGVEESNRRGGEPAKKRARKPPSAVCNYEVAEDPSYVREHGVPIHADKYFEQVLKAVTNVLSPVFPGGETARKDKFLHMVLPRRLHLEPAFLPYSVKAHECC
T2 sequence (P08546 whole entry): as above

Compound: COc1ccc(CCc2ccc3ccc(C(=O)NCC(O)c4ccccc4)c(O)c3n2)cc1 (stereo not drawn) [drawing 129]
- IC50 (CMV polymerase; [1]): 13.3 µM

Compound: Cc1ccc2c(Cl)cc(S(=O)(=O)NCCc3c[nH]c4ccccc34)c(O)c2n1 [Example 64]
- % Inhibition (CMV polymerase; Concentration 3.13 μM, Table 6): 16%
- % Inhibition (CMV polymerase; Concentration 6.25 μM, Table 6): 25%
- % Inhibition (CMV polymerase; Concentration 12.5 μM, Table 6): 25%
- % Inhibition (CMV polymerase; Concentration 25 μM, Table 6): 46%
- % Inhibition (CMV polymerase; Concentration 50 μM, Table 6): 75%
- % Inhibition (CMV polymerase; Concentration 100 μM, Table 6): 58%
- % Inhibition (CMV polymerase; Concentration 200 μM, Table 6): 84%
- IC50 (CMV polymerase; Table 6, read-out: IC50): 29.8 µM

Compound: N#CCNC(=O)c1ccc2cccnc2c1O [Example 72, N-(cyanomethyl)-8-hydroxy-7-quinolinecarboxamide]
- melting point: 206 to 208 °C (dec.)

Compound: CC(C)c1ccc(S(=O)(=O)NCCCCCNC(=O)c2ccc3cccnc3c2O)cc1 [drawing 128]
- IC50 (CMV polymerase; [1]): < 3.1 µM

Compound: O=S(=O)(NCc1ccccc1)c1cc(F)c2cccnc2c1O [Example 67, 5-Flouro-8-hydroxy-N-(phenylmethyl)-7-quinolinesulfonamide]
- % Inhibition (CMV polymerase; Concentration 3.13 μM, Table 6): 13%
- % Inhibition (CMV polymerase; Concentration 6.25 μM, Table 6): 23%
- % Inhibition (CMV polymerase; Concentration 12.5 μM, Table 6): 25%
- % Inhibition (CMV polymerase; Concentration 25 μM, Table 6): 41%
- % Inhibition (CMV polymerase; Concentration 50 μM, Table 6): 76%
- % Inhibition (CMV polymerase; Concentration 100 μM, Table 6): 86%
- % Inhibition (CMV polymerase; Concentration 200 μM, Table 6): 94%
- IC50 (CMV polymerase; Table 6, read-out: IC50): 23.6 µM

Compound: Cc1ccc2c(Cl)cc(C(=O)NCCCc3ccccc3)c(O)c2n1 [Example 69, 5-chloro-8-hydroxy-2-methyl-N-(3-phenylpropyl)-7-quinolinecarboxamide]
- melting point: 109 to 111 °C

Compound: Cc1ccc2c(Cl)cc(S(=O)(=O)NCC3CCCCC3)c(O)c2n1 [Example 32, 5-Chloro-N-(cyclohexylmethyl)-8-hydroxy-2-methyl-7-quinolinesulfonamide]
- melting point: 113 to 115 °C

Compound: Cc1ccc2c(Cl)cc(C(=O)NCCCc3ccccc3)c(O)c2n1 [drawing 126]
- IC50 (CMV polymerase; [1]): 9.7 µM and 9.4 µM

Compound: Cc1ccc2c(Cl)cc(C(=O)NCc3ccc(Cl)cc3)c(O)c2n1 [Example 68, 5-Chloro-N-[(4-chlorophenyl)methyl]-8-hydroxy-2-methyl-7-quinolinecarboxamide]
- melting point: 128 to 130 °C

Compound: CCCCCCCNC(=O)c1ccc2ccc(/C=C/c3ccccc3)nc2c1O [Example 49, N-Heptyl-8-hydroxy-2-(2-phenylethenyl)-7-quinolinecarboxamide]
- IC50 (HCMV polymerase; Table 5, pol type CMV, read-out: IC50): < 3.1 µM and 0.6 µM

Compound: O=C(NCc1ccccc1C(F)(F)F)c1ccc2cccnc2c1O
- IC50 (HCMV polymerase; [3]): 15.7 µM

Compound: O=C(NCC1CCCCC1)c1ccc2cccnc2c1O
- IC50 (HCMV polymerase; [3]): 24.2 µM

Compound: O=C(Nc1nnc(NCc2ccc3c(c2)OCO3)s1)c1ccc2cccnc2c1O
- IC50 (HCMV polymerase; [4]): 7.1 µM

Compound: O=C(Nc1ccc([N+](=O)[O-])cc1)c1ccc2cccnc2c1O
- IC50 (HCMV polymerase; [2]): 48.4 µM

Compound: CCOC(=O)C(Cc1c[nH]c2ccccc12)NC(=O)c1ccc2cccnc2c1O (stereo not drawn)
- IC50 (HCMV polymerase; [3]): 24.6 µM and 29.4 µM

Compound: O=C(NCc1ccc(Cl)cc1)c1cc([N+](=O)[O-])c2cccnc2c1O
- IC50 (HCMV polymerase; Table 13, read-out: IC50): 2.6 µM

Compound: O=C(Nc1cc(C(F)(F)F)cc(C(F)(F)F)c1)c1ccc2cccnc2c1O
- IC50 (HCMV polymerase; [2]): 68.2 µM

Compound: O=C(Nc1cc(F)c(F)cc1F)c1ccc2cccnc2c1O
- IC50 (HCMV polymerase; [2]): 27.4 µM

Compound: CSCC[C@H](Nc1nnc(NC(=O)c2ccc3cccnc3c2O)s1)C(=O)OC(C)(C)C.O (hydrate or solvate)
- melting point: 204 to 205 °C

Compound: O=C(Nc1ccc(OCc2ccccc2)cc1)c1ccc2cccnc2c1O
- IC50 (HCMV polymerase; [2]): 4.1 µM

Compound: O=C(NCc1cc(Cl)cc(Cl)c1)c1ccc2cccnc2c1O
- IC50 (HCMV polymerase; Table 14, read-out: IC50): 27 µM

Compound: CCCCCCCCCCCCCCCCCCNC(=O)c1ccc2cccnc2c1O
- IC50 (HCMV polymerase; [3]): 20.7 µM

Compound: O=C(NCc1cc(Cl)ccc1Cl)c1ccc2cccnc2c1O
- IC50 (HCMV polymerase; [3]): 17 µM

Compound: O=C(Nc1cccc(F)c1)c1ccc2cccnc2c1O
- IC50 (HCMV polymerase; [2]): 16.9 µM

Results, then the molecule that gave them:

- melting point: 209 to 210 °C
Compound: Cc1ccc(F)cc1NC(=O)c1ccc2cccnc2c1O [Example 165, N-(5-Fluoro-2-methylphenyl)-8-hydroxy-7-quinolinecarboxamide]

- melting point: 250 °C (dec.)
Compound: O=C(Nc1nnc(Br)s1)c1ccc2cccnc2c1O [Example 244, N-(5-Bromo-1,3,4-thiadiazol-2-yl)-8-hydroxy-7-quinolinecarboxamide]

- melting point: 106 to 108 °C
Compound: CC(C)c1ccc(S(=O)(=O)NCCCCCNC(=O)c2ccc3cccnc3c2O)cc1 [Example 71]

- melting point: 164 to 167 °C
Compound: Cc1ccc(NC(=O)c2ccc3cccnc3c2O)c(C)c1 [Example 166, N-(2,4-Dimethylphenyl)-8-hydroxy-7-quinolinecarboxamide]

- IC50 (CMV polymerase; Table 13, last compound, tested under modified conditions, read-out: IC50): 5.1 µM
Compound: O=C(NCCCc1ccccc1)c1ccc2ccc(/C=C/c3ccccc3)nc2c1O

- IC50 (CMV polymerase; [1]): 42.8 µM
Compound: Cc1ccc2c(Cl)cc(C(=O)NCCSc3ccccc3)c(O)c2n1 [drawing 127]

- melting point: 97 to 99 °C
Compound: CCCCCCCNC(=O)c1ccc2ccc(C(F)(F)F)nc2c1O [Example 56, N-Heptyl-8-hydroxy-2-(trifluoromethyl)-7-quinolinecarboxamide]

- melting point: 210 to 211 °C
Compound: O=C(Nc1cc(C(F)(F)F)ccc1Cl)c1ccc2cccnc2c1O [Example 164, N-[2-Chloro-5-(trifluoromethyl)phenyl]-8-hydroxy-7-quinolinecarboxamide]

- melting point: 69 to 72 °C
Compound: COc1ccc(CCc2ccc3ccc(C(=O)NCC(O)c4ccccc4)c(O)c3n2)cc1 (stereo not drawn) [Example 73, 8-hydroxy-N-(2-hydroxy-2-phenylethyl)-2-[2-(4-methoxyphenyl)ethyl]-7-quinolinecarboxamide]

- melting point: 214 to 215 °C
Compound: CC(C)C[C@H](Nc1nnc(NC(=O)c2ccc3cccnc3c2O)s1)C(=O)OC(C)(C)C.O (hydrate or solvate)

- IC50 (HCMV polymerase; [2]): 7 µM
Compound: COc1ccc(Cl)c(NC(=O)c2ccc3cccnc3c2O)c1

- IC50 (HCMV polymerase; [2]): 8.2 µM
Compound: CSc1ccccc1NC(=O)c1ccc2cccnc2c1O

- melting point: 191 to 192 °C
Compound: O=S(=O)(NCc1ccccc1)c1cc(Br)c2cccnc2c1O [Example 24, 5-Bromo-8-hydroxy-N-(phenylmethyl)-7-quinolinesulfonamide]

- melting point: 300 to 302 °C (dec.)
Compound: O=C(Nc1nnc(C(F)(F)F)s1)c1ccc2cccnc2c1O [Example 243, 8-Hydroxy-N-[5-(trifluoromethyl)-1,3,4-thiadiazol-2-yl]-7-quinolinecarboxamide]

- IC50 (HCMV polymerase; [2]): 29.7 µM
Compound: O=C(Nc1ccc(Br)cc1)c1ccc2cccnc2c1O

- IC50 (HCMV polymerase; [3]): 5.2 µM
Compound: O=C(NCc1ccc(Cl)cc1Cl)c1ccc2cccnc2c1O

- IC50 (HCMV polymerase; [4]): 14.3 µM
Compound: CC(C)(C)OC(=O)NCCNc1nnc(NC(=O)c2ccc3cccnc3c2O)s1

- IC50 (HCMV polymerase; [4]): 8.5 µM
Compound: O=C(Nc1nnc(N[C@@H](Cc2c[nH]c3ccccc23)C(=O)O)s1)c1ccc2cccnc2c1O

- IC50 (HCMV polymerase; [2]): 8.1 µM
Compound: Cc1ccc(NC(=O)c2ccc3cccnc3c2O)c(C)c1 [drawing 279]

- IC50 (HCMV polymerase; [4]): < 3.1 µM
Compound: CC(C)(C)OC(=O)[C@H](Cc1ccc(O)cc1)Nc1nnc(NC(=O)c2ccc3cccnc3c2O)s1

- IC50 (HCMV polymerase; [3]): < 3.1 µM
Compound: CCCCCCCCCCCNC(=O)c1ccc2cccnc2c1O

- IC50 (HCMV polymerase; [3]): 6.6 µM
Compound: O=C(NC1(CO)CCCC1)c1ccc2cccnc2c1O

- IC50 (HCMV polymerase; [4]): 71 µM
Compound: O=C(Nc1nnc(C(F)(F)F)s1)c1ccc2cccnc2c1O [drawing 303]

- IC50 (HCMV polymerase; [2]): > 50 µM
Compound: N#Cc1ccccc1NC(=O)c1ccc2cccnc2c1O

- IC50 (HCMV polymerase; [2]): 10.2 µM
Compound: Cc1cc(F)ccc1NC(=O)c1ccc2cccnc2c1O

- IC50 (HCMV polymerase; Table 13, read-out: IC50): 41.6 µM
Compound: O=C(NCCSc1ccccc1)c1ccc2ccc(C(F)(F)F)nc2c1O

- IC50 (HCMV polymerase; [2]): 12.2 µM
Compound: Cc1cccc(NC(=O)c2ccc3cccnc3c2O)c1 [drawing 224]

- IC50 (HCMV polymerase; [2]): 18.5 µM
Compound: N#Cc1c(F)c(F)c(NC(=O)c2ccc3cccnc3c2O)c(F)c1F

- IC50 (HCMV polymerase; Table 13, read-out: IC50): 102 µM
Compound: Cc1cc(O)c2ccc(C(=O)NCc3ccc(Cl)cc3)c(O)c2n1

- IC50 (HCMV polymerase; [3]): 6.9 µM
Compound: O=C(NCCc1cccc(Cl)c1)c1ccc2cccnc2c1O

- IC50 (HCMV polymerase; [3]): 9.2 µM
Compound: O=C(NCCSc1ccccc1)c1ccc2cccnc2c1O
